US6376540B1, “Furan nitrone compounds” (Centaur Pharmaceuticals, Inc., priority 1996, dated 2002)

Assays:
[1] = test system: rats; test: N-nitro-L-arginine-induced spatial learning deficit; assay type: in vivo, rat; settings: 10 mg/kg 30 min before each of nine doses of N-nitro-L-arginine (100 mg/kg)
From the text: Treatment of rats with N-nitro-L-arginine, a nitric oxide synthase inhibitor, is known to cause a deficit in spatial learning. See, for example, G. A. Bohme et al., (1993) PNAS, 90:9191-9194. Rats treated with N-nitro-L-arginine wander aimlessly throughout their enclosure whereas untreated rats spend most of their time in the quadrant in which they are initially placed and stay away from the open area in the middle of the enclosure. This N-nitro-L-arginine-induced spatial learning deficit is used as a model for learning deficits caused by Alzheimer's disease and other dementias.
In this experiment, 10 mg/kg of N-isopropyl-α-(2-sulfofuran-5-yl)nitrone sodium salt (prepared in Example 1 above) or a control was administered 30 min before each of nine doses of N-nitro-L-arginine (100 mg/kg. iip.). The wanderings of the rats were then monitored. […] In contrast, rats treated with N-nitro-L-arginine and N-isopropyl-α-(2-sulfofuran-5-yl)nitrone sodium salt show a preference for the area of the enclosure into which they were first placed and rarely cross the center of the enclosure as illustrated in FIG. 3C. This behavior is essentially the same as rats treated with a saline control (i.e., without N-nitroL-arginine)(see FIG. 3A).

[2] = Free radical trapping, DCF oxidation, tert-butyl hydroperoxide system; assay type: biochemical; settings: 100 μM test compound, 25 μM tert-butyl hydroperoxide, 50 μM DCF in MEM, 37° C., 2 hrs
Method: Dichlorofluorescein (DCF) is a compound that fluoresces when oxidized by reactive oxygen species (ROS), such as hydroxyl, peroxyl, or alkoxyl free radicals. Test compounds were evaluated for their ability to scavenge radicals by determining their capacity to prevent the DCF oxidation in a radical generating environment. Two radical generating systems were used: (i) ferrous iron and (ii) tert-butyl hydroperoxide. When ferrous iron is placed in normoxic solution, it autooxidizes to produce ROS in the form of hydroxyl radicals, superoxide anion free radicals, and hydrogen peroxide. Similarly, when tert-butyl hydroperoxide is placed in non-chelated media, trace metals catalyze its oxidation to yield alkoxy, peroxyl, and alkyl free radicals.
In this assay, either 100 μM FeSO4 or 25 μM tert-butyl hydroperoxide were mixed with 50 μM DCF and 100 μM of the test compound in MEM and the mixture was incubated at 37° C. for 2 hrs. The fluorescence wavelengths measured were 485 nm for excitation and 530 nm for emission. In these tests, N-isopropyl-α-(2-sulfofuran-5-yl)nitrone sodium salt (prepared in Example 1 above) reduced fluorescence by 20% in the Fe^+2 assay and by 13% in the tert-butyl hydroperoxide assay. In comparison, a known free radical trap, N-tert-butyl-α-phenylnitrone (PBN) reduced fluorescence by 48% in the Fe^+2 assay and by 9% in the tert-butyl hydroperoxide assay.

[3] = test system: Fas^1pr mutation mice; test: Learning deficit in autoimmune mice, active avoidance T-maze; assay type: in vivo
Method: Male MRL/MpJ controls and Fas^1pr mutation mice were either dosed orally with 1% methylcellulose (“MC”) or with 100 mg/kg of N-isopropyl-α-(2-sulfofuran-5-yl)nitrone sodium salt (prepared in Example 1 above)(“test compound”) in 1% methylcellulose for 9-10 weeks. Following dosing, animals of approximately 4 months of age were tested in an active avoidance T-maze. In the one day test, animals were analyzed for acquisition to avoid shock within the first five trials of the test.

[4] = test system: Male Sprague-Dawley rats; test: Locomotor impairment due to Aβ(25-35), apomorphine-induced circling; assay type: in vivo, rat; settings: one hour before and three hours post Aβ injection, apomorphine 0.5 mg/kg s.c. one week after
Method: Male Sprague-Dawley rats (250-400 g) were given an ipsilateral injection of 20 μg of Aβ(25-35) into their substantia nigra. Prior to the injection, the rats were fasted overnight and then each received an oral treatment of N-isopropyl-α-(2-sulfofuran-5-yl)nitrone sodium salt (prepared in Example 1 above)(10-100 mg/kg) dissolved in aqueous 1% methyl cellulose or the vehicle alone, one hour before and three hours post the Aβ-peptide stereotaxic injection. One week after treatment, the rats were dosed s.c. with 0.5 mg/kg apomorphine (dissolved in 0.1% vitamin C in isotonic saline) and the circling reflex was monitored using a Rotorat computerized behavioral monitoring apparatus for the time period between 15 and 30 minutes of being placed in the arena. Impairment of the animals due to Aβ-peptide was determined by measuring the number of rotations over the 15 minute period. A higher number of rotations per period indicates more physical impairment.

[5] = test system: female Lewis rats; test: Prevention of weight loss in the EAE model; assay type: in vivo, rat; settings: 100 mg/kg po once a day, weighed daily
Method: Acclimated female Lewis rats, (Harlan; 200-250 g) were used in this experiment since this strain of rat is genetically highly susceptible to EAE. In the experiment, 100 mg/kg of N-isopropyl-α-(2-sulfofuran-5-yl)nitrone sodium salt (prepared in Example 1 above) or a vehicle alone (control) was administered po once a day from days 4 to 18. On day 1, the rats received an injection of 100 μg of MBP peptide, from guinea pig brain, plus 500 μg of H37RA Mycobacterium in 0.10 ml complete Freund's adjuvant divided equally between the two hind foot-pads.
To determine if the furan nitrones of formula I prevented such weight loss, the animals in the EAE model described in Example 27 above were weighed daily.

[6] = biological target: T1, synthetic Aβ(1-40) (Homo sapiens, UniProt P05067); test: Inhibition of Aβ(1-40) beta-pleated sheet formation (ThT fluorescence); assay type: biochemical; settings: 10 μM compound, ThT 3 μM, PBS pH 6.0, 12 hours; read-out: inhibition of Aβ(1-40) beta-pleated sheet formation compared to the controls
T1 construct: 3 μL of Aβ(1-40)(3 μg) prepared with dH2O
T1 sequence (P05067 672-711 limits assumed): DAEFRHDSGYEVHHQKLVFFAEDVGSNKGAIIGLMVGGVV
From the text: The deposition of amyloid β-peptide (Aβ) is associated with the development of Alzheimer's disease. See, for example, G. G. Glenner et al. (1984) Biochem. Biophys. Res. Commun., 120:885-890; and R. E. Tanzi (1989) Ann. Med., 21:91-94. Accordingly, compounds which effectively disrupt the formation of Aβ(1-40) or Aβ(1-42) beta-pleated sheets are potentially useful for preventing and/or reversing such amyloid deposits. Thioflavin T (ThT) is known to rapidly associate with beta-pleated sheets, particularly the aggregated fibrils of synthetic Aβ(1-40). This association gives rise to a new excitation maximum at 440 nm and to enhanced emission at 490 nm.
The experiments were performed using a CytoFluor II fluorescence plate reader having the following parameters:
Into each well was aliquoted 95 μl of ThT (3 μM) prepared in PBS (pH 6.0), 2 μL of the compound to be tested (10 μM) prepared with 0.05% of methylcellulose in PBS (pH 6.0), and 3 μL of Aβ(1-40)(3 μg) prepared with dH2O (the compounds prepared in Examples 1, 3, 4, 5, 6, 7, 8, 9, 11 and 12 were tested). The fluorescence measurement began when the Aβ(1-40) was added and continued for a total of 12 hours. The percent inhibition of beta-pleated sheet formation was calculated from the relative fluorescence unit difference between aggregation in the presence and in the absence of the test compounds.

With `CC(C)[N+]([O-])=Cc1ccc(S(=O)(=O)O)o1` [Example 1, N-Isopropyl-α-(2-sulfofuran-5-yl)nitrone] the “spatial learning deficit caused by N-nitro-L-arginine” value [1] was “prevents the spatial learning deficit”, the “reduced fluorescence in the tert-butyl hydroperoxide assay” value [2] was 13% and the “protection in acquisition learning deficit compared to Fas mutated animals receiving only 1% methylcellulose” value ([3]; 100 mg/kg orally for 9-10 weeks, two experiments combined (n=14-15)) was 50%. The “Mean Acquisition Values (Maximum score of 5.0)” value ([3]; Fas^1pr mice, 100 mg/kg orally in 1% methylcellulose for 9-10 weeks, first five trials) was “Mean = 1.467”, the “Rotations Over 15 Minute Period” value ([4]; Aβ(25-35) + 10 mg/kg oral) was 9 and the “Rotations Over 15 Minute Period” value ([4]; Aβ(25-35) + 100 mg/kg oral) was 6. The weight change [5] was “normal or above normal weight gain” and the inhibition at 10 µM [6] was 15 to 71%.
